Results from patent US20050063956A1, “Method and device for attracting insects” (Colorado State University Research Foundation, priority 1998, published 2005).

Columns and labels:
[1] = system: Reticulitermes flavipes; assay: T-tube choice-test behavioral bioassay with CO2; settings: in vivo
Procedure: (§1) Behavioral bioassay apparatus: The choice-test bioassay apparatus was constructed from a glass T-tube (5 mm inside diameter, 5 mm stem, with each branch 4.5 cm long). Each branch of the ‘T’ was bent downward (2.5 cm from the junction of the ‘T’) at a 45° angle to form a pitfall trap. A 5 mm NMR cap (cat. no. 100-0050, Drummond Scientific, Broomall, Pa.) with a 1 mm pinhole in it was firmly pushed over the end of each bent branch. A 25 cm length of Teflon tubing (0.8 mm inside diameter) was inserted 3 mm into the hole in each NMR cap and the other end of the tubing was connected to a 35 ml polyethylene syringe (cat. no. 106-0490, Sherwood Medical, St. Louis, Mo.). The two 35-ml syringes were connected to a syringe pump which was adjusted to provide an airflow of 1 ml per min into each choice arm of the bioassay apparatus.
(§2) Mixtures of CO2 and ambient air were tested to determine the termite response to a range of CO2 concentrations. […] The CO2 concentration of the syringes was determined by using GC-MS-SIM analysis (see below) before each bioassay. […]
(§3) Procedure: For bioassays, termite workers were collected from plastic tubs by using a camel's hair brush and were placed into a holding container constructed from a 3 cm length of Teflon tubing (8 mm inside diameter). […] Bioassays were conducted for 15 min, after which the number of termites in each pitfall was recorded. […]

[2] = system: Reticulitermes virginicus; assay: T-tube choice-test behavioral bioassay with CO2; settings: in vivo
Procedure: as §1, §2, §3

## O=C=O [CO2, carbon dioxide]
[1]
  CO2 concentration of best attraction: 10 mmol per mol
[2]
  CO2 concentration of best attraction: 10 mmol per mol
